# Test results taken from PMC12298827, “Subchronic Toxicities of Four Per- and Polyfluoroalkyl Substances (PFASs) by Oral Exposure in Sprague–Dawley Rats” (Toxics, 2025).
# Test system: male and female Sprague–Dawley rats
# Assay: 90-day subchronic oral gavage toxicity study
# Type: in vivo, rat
# Description: Subchronic (90-day) studies were performed in accordance with current U.S. EPA’s Toxic Substances Control Act Good Laboratory Practice (GLP) Standards, with the following two general exceptions to the GLP guidelines: Analysis of the dose formulations was conducted according to RTI-approved Standard Operating Procedures, and corn oil (the vehicle) was not characterized (certificate of analysis from the vendor is available in the appendices to the final reports). Male and female Sprague–Dawley rats (five dose levels plus a control, n = 10/sex/dose group, corn oil vehicle dose volume of 3 mL/kg; oral gavage) were used in these studies, and the rats were euthanized on SD 91. The dose levels for PFHI were 0, 12.5, 25, 50, 100, and 200 mg/kg-day. The dose levels for MHFPK were 0, 18.8, 37.5, 75, 150, and 300 mg/kg-day. The dose levels for PFNAC were 0, 0.1, 0.3, 1.0, 3.0, and 10 mg/kg-day for male rats and 0, 0.3, 1.0, 3.0, 10, and 30 mg/kg-day for female rats. For CTFPA, the dose levels were 0, 1.9, 3.8. 7.5, 15, and 30 mg/kg-day for male rats and 0, 6.3, 12.5, 25, 50, and 100 mg/kg-day for female rats. For each PFAS, three batches of dosing solution were prepared. The time between the batch preparation of the dosing solutions ranged between 29 and 39 days. Blood samples were collected from all the rats at termination for serum chemistry, hematology, coagulation, and the analysis of the parent PFAS chemical in the plasma. In vivo data collection and further detail on the endpoints examined postmortem are described below.
# The rats were observed twice daily for morbidity and mortality throughout the study period. At least once prior to randomization to test groups and weekly thereafter, the rats were physically examined, and bodyweights were obtained. Feed consumption was quantified weekly starting on SD 1.
# Neurotoxicity was evaluated using the functional observational battery (FOB) and measuring locomotor activity (LMA) 2–4 h post dosing on SDs 78–80 and 80–84, respectively. For both the 14- and 90-day studies, an ophthalmologic examination was conducted prior to randomization and near the end of the study, using indirect ophthalmoscopy and slit–lamp biomicroscopy (as needed) after the administration of a mydriatic solution.
# Hematology, biochemistry, and coagulation endpoints were measured at the termination of the study. A Siemens Advia 2120i hematology analyzer (Siemens Healthineers, Erlangen, Germany) was used to measure (or calculate) the parameters related to the complete blood count, leukocyte differential count, and reticulocyte count. The hematology parameters are listed and described in Table 2. The prothrombin time […] and activated partial thromboplastin time (APTT) were measured using an Instrumentation Laboratory (Bedford, MA, USA) ACL Elite Pro coagulation analyzer (laser–nephelometric centrifugal method).
# At necropsy, the rats were visually examined for external abnormalities and organ weights (absolute and relative to the BW and brain weight), which were recorded (paired organs weighed together). The tissues were preserved in 10% neutral buffered formalin (NBF), except for the ocular tissues, testes, and epididymides, which were preserved in modified Davidson’s fixative and later transferred to 10% NBF. Bone marrow smears were prepared from the femurs, and the slides were air-dried, fixed in methanol, stained, and stored at room temperature for possible future evaluation. The preserved tissues were embedded in paraffin, sectioned, stained with hematoxylin and eosin, and examined by a board-certified veterinary pathologist.
# Statistical analysis was performed using Provantis™ Version 10 or greater (Instem LSS, Limited; Stone, Staffordshire, UK). Differences among the treatment groups compared to the control were evaluated using one-way analysis of variance (ANOVA) if the underlying assumptions of a normal distribution (Shapiro–Wilk test) and the homogeneity of the variance (Levene’s test) were satisfied. […]
compound,measurement,setting,value
"C=CC(=O)OCC(F)(F)C(F)(F)C(F)(F)C(F)(F)C(F)(F)C(F)(F)C(F)(F)C(F)F [PFNAC, 1H,1H,9H-Perfluorononyl acrylate]",Liver/Body Weight,"female, 30 mg/kg-day",3.22%
same,Liver/Brain Weight,"female, 30 mg/kg-day",499%
same,MPV,"female, 30 mg/kg-day",7.95 ± 0.58 fL
same,PT,"female, 30 mg/kg-day",14.44 s
same,RBC,"female, 30 mg/kg-day",7.067±0.364 M/µL
same,Total BW change,"female, 30 mg/kg-day",106.79 g
same,Total Food Consumed,"female, 30 mg/kg-day",1525 g
same,"BMD10, absolute kidney weight increase",male,0.17 mg/kg-day
same,"BMD10, absolute liver weight increase",male,0.09 mg/kg-day
same,"BMD10, relative liver weight increase",male,0.15 mg/kg-day
same,"BMDL, absolute kidney weight increase",male,0.06 mg/kg-day
same,"BMDL, absolute liver weight increase",male,0.04 mg/kg-day
same,"BMDL, relative liver weight increase",male,0.13 mg/kg-day
same,"LOEL, absolute kidney weight increase",male,0.3 mg/kg-day
same,"LOEL, absolute liver weight increase",male,0.3 mg/kg-day
same,"LOEL, relative kidney weight increase",male,1.0 mg/kg-day
same,"LOEL, relative liver weight increase",male,0.3 mg/kg-day
same,"NOEL, absolute kidney weight increase",male,0.1 mg/kg-day
same,"NOEL, absolute liver weight increase",male,0.1 mg/kg-day
same,"NOEL, relative kidney weight increase",male,0.3 mg/kg-day
same,"NOEL, relative liver weight increase",male,0.1 mg/kg-day
same,% BW Gain,"male, 0.1 mg/kg-day",110.97%
same,"% Diff, % BW Gain","male, 0.1 mg/kg-day",9.90%
same,"% Diff, Total BW change","male, 0.1 mg/kg-day",10.47%
same,"% Diff, Total Food Consumed","male, 0.1 mg/kg-day",3.57%
same,A/G,"male, 0.1 mg/kg-day",0.90±0.08 ratio
same,ABNEUT,"male, 0.1 mg/kg-day",4.163±1.653 K/µL
same,ABRETi,"male, 0.1 mg/kg-day",193.23±33.44 10^9/L
same,ABSEOS,"male, 0.1 mg/kg-day",0.112±0.047 K/µL
same,ALB,"male, 0.1 mg/kg-day",3.60 ± 0.21 g/dL
same,ALPi,"male, 0.1 mg/kg-day",138.7±40.9 U/L
same,APTT,"male, 0.1 mg/kg-day",23.16 s
same,BUN,"male, 0.1 mg/kg-day",16.2 ± 1.6 mg/dL
same,CHOL,"male, 0.1 mg/kg-day",73.4 ± 15.5 mg/dL
same,GLOB,"male, 0.1 mg/kg-day",4.03 ± 0.29 g/dL
same,GLUC,"male, 0.1 mg/kg-day",107.6 ± 8.6 mg/dL
same,HCT,"male, 0.1 mg/kg-day",46.10±4.64%
same,HGB,"male, 0.1 mg/kg-day",14.36 ± 1.40 g/dL
same,Kidney Weight,"male, 0.1 mg/kg-day",3.14 g
same,Kidney/Body Weight,"male, 0.1 mg/kg-day",0.51%
same,Kidney/Brain Weight,"male, 0.1 mg/kg-day",141%
same,Liver Weight,"male, 0.1 mg/kg-day",14.99 g
same,Liver/Body Weight,"male, 0.1 mg/kg-day",2.41%
same,Liver/Brain Weight,"male, 0.1 mg/kg-day",673%
same,MPV,"male, 0.1 mg/kg-day",7.82 ± 0.50 fL
same,PT,"male, 0.1 mg/kg-day",15.98 s
same,RBC,"male, 0.1 mg/kg-day",8.281±0.895 M/µL
same,Total BW change,"male, 0.1 mg/kg-day",333.40 g
same,Total Food Consumed,"male, 0.1 mg/kg-day",2298 g
same,% BW Gain,"male, 0.3 mg/kg-day",113.17%
same,"% Diff, % BW Gain","male, 0.3 mg/kg-day",12.08%
same,"% Diff, Total BW change","male, 0.3 mg/kg-day",12.46%
same,"% Diff, Total Food Consumed","male, 0.3 mg/kg-day",9.40%
same,A/G,"male, 0.3 mg/kg-day",0.98±0.10 ratio
same,ABNEUT,"male, 0.3 mg/kg-day",3.679±1.341 K/µL
same,ABRETi,"male, 0.3 mg/kg-day",224.66±50.41 10^9/L
same,ABSEOS,"male, 0.3 mg/kg-day",0.108±0.037 K/µL
same,ALB,"male, 0.3 mg/kg-day",3.74 ± 0.23 g/dL
same,ALPi,"male, 0.3 mg/kg-day",174.2±32.7 U/L
same,APTT,"male, 0.3 mg/kg-day",15.99 s
same,BUN,"male, 0.3 mg/kg-day",18.3 ± 1.6 mg/dL
same,CHOL,"male, 0.3 mg/kg-day",78.7 ± 16.8 mg/dL
same,GLOB,"male, 0.3 mg/kg-day",3.85 ± 0.30 g/dL
same,GLUC,"male, 0.3 mg/kg-day",112.1 ± 9.6 mg/dL
same,HCT,"male, 0.3 mg/kg-day",47.33±1.28%
same,HGB,"male, 0.3 mg/kg-day",14.69 ± 0.40 g/dL
same,Kidney Weight,"male, 0.3 mg/kg-day",3.46 g
same,Kidney/Body Weight,"male, 0.3 mg/kg-day",0.56%
same,Kidney/Brain Weight,"male, 0.3 mg/kg-day",157%
same,Liver Weight,"male, 0.3 mg/kg-day",17.52 g
same,Liver/Body Weight,"male, 0.3 mg/kg-day",2.82%
same,Liver/Brain Weight,"male, 0.3 mg/kg-day",793%
same,MPV,"male, 0.3 mg/kg-day",7.63 ± 0.44 fL
same,PT,"male, 0.3 mg/kg-day",15.10 s
same,RBC,"male, 0.3 mg/kg-day",8.282±0.259 M/µL
same,Total BW change,"male, 0.3 mg/kg-day",339.42 g
same,Total Food Consumed,"male, 0.3 mg/kg-day",2427 g
same,% BW Gain,"male, 1.0 mg/kg-day",108.93%
same,"% Diff, % BW Gain","male, 1.0 mg/kg-day",7.88%
same,"% Diff, Total BW change","male, 1.0 mg/kg-day",4.36%
